Experimental data reported in paper PMC6257627, “Target Validation and Identification of Novel Boronate Inhibitors of the Plasmodium falciparum Proteasome” (Journal of Medicinal Chemistry, 2018).
“And” between values parts separate entries of the source, which are not always exact repeats. Equal values may be shown once.

What was measured:
[1] = tested on: Cam3.II^R539T early ring stages; assay: Isobologram analysis of interaction with DHA, 3 h pulse; assay type: cell-based, P. falciparum; settings: early ring stages of K13 mutant Cam3.II^R539T, 3 h pulses
Protocol: (§1) Figure 1 Structures, proteasome inhibition, and isobologram analysis of selected compounds. (A) Structures of MPI-1, MPI-2, MPI-3, and MPI-4 (compounds 1–4). (B) GFP-DD transfectants were maintained in Shield-1 for 24 h before wash-out prior to setting up experiments. Trophozoites were re-exposed to Shield-1 or exposed to indicated compounds for 3 h. Results are representative of four independent experiments. (i) Cell extracts were analyzed by Western blot using anti-GFP or anti-PfBiP as a loading control. (ii) GFP fluorescence measured by flow cytometry. Dotted line represents background (fluorescence of sample after washout of Shield-1). Data are the mean ± range/2 for the readings in technical duplicate from one experiment. […]
For standard assays of antiplasmodial activity, sorbitol-treated ring stage parasites were incubated with the drugs for 72 h and viability was assessed in the second cycle.[12] […] Cells were then stained with 2 μM Syto-61 (Thermo Fisher Scientific), and their fluorescence was measured by flow cytometry (FACSCanto II cytometer; Becton Dickinson). Data were gated and analyzed using FCS Express software (version 3) to determine parasitemia of each sample. […] Interactions between DHA and MPI-1 or MPI-4 against the K13 mutant (DHA resistant) Cam3.II P. falciparum strain, exposed to a 3 h pulsed treatment, were determined at 4 h after invasion as described previously.[12]

[2] = tested on: P. falciparum proteasome activity in cells (GFP-DD transfectants); assay: GFP-DD reporter degradation in transfectants (Western blot, flow cytometry); assay type: cell-based; settings: trophozoites, 3 h exposure
Protocol: as §1, with “experiment. Curves are fitted with the sigmoidal four-parameter model. (C) Isobologram analysis of the interaction of test compounds and DHA. Cam3.II (DHA resistant) parasites at very early ring stages were subjected to 3 h pulses in the presence of different combinations of DHA and test compounds.” for “experiment.”
Trophozoite-stage parasite cultures (GFP-DD parasites) at 5% hematocrit and 5% parasitemia were subjected to the drug treatment indicated in the figure legends at 37 °C. […] Syto-61 and GFP fluorescence was recorded using the FACSCanto II cytometer (Becton Dickinson). […] Parasites were gated based on parasite GFP fluorescence, and values reported are mean fluorescence. […]

[3] = tested on: Cam3.II^R539T early ring stages; parameters: method as in PMID 25901609; settings: P. falciparum in culture; cited from earlier work
[4] = tested on: 3D7 B2a; assay: 72 h viability assay, bortezomib-resistant clone B2a; assay type: cell-based, Plasmodium falciparum; settings: mean ± SEM, n=3
Protocol: For standard assays of antiplasmodial activity, sorbitol-treated ring stage parasites were incubated with the drugs for 72 h and viability was assessed in the second cycle.[12] Drug pulse assays were performed as described previously.[47] For short pulse assays, tightly synchronized early ring stage parasites (1–3 h after invasion) at 0.2% hematocrit and 1–2% parasitemia were subjected to 3 h drug pulse at 37 °C and returned to culture until parasites reached trophozoite stage of the following cycle. Cells were then stained with 2 μM Syto-61 (Thermo Fisher Scientific), and their fluorescence was measured by flow cytometry (FACSCanto II cytometer; Becton Dickinson). Data were gated and analyzed using FCS Express software (version 3) to determine parasitemia of each sample. Viability represents the parasitemia normalized to untreated and “kill treated” controls, where “kill treated” refers to samples treated with 2 μM DHA for 48–72 h. Interactions between DHA and MPI-1 or MPI-4 against the K13 mutant (DHA resistant) Cam3.II P. falciparum strain, exposed to a 3 h pulsed treatment, were determined at 4 h after invasion as described previously.[12]
Prior to selection, an aliquot of the parental line was stocked as a reference for subsequent whole genome sequencing analysis. […] Paired-end reads were either aligned to the P. falciparum 3D7 reference genome (PlasmoDB version 13.0).

[5] = biological target: Pf20S β5 (Plasmodium falciparum, UniProt A0A5K1K7U1+Q8IJT1); assay: Kinetic analysis, Pf20S β5 (Ac-WLA-AMC); assay type: biochemical, P. falciparum; settings: Figure S3D
Chain of Pf20S β5 (Q8IJT1 entry or part of it): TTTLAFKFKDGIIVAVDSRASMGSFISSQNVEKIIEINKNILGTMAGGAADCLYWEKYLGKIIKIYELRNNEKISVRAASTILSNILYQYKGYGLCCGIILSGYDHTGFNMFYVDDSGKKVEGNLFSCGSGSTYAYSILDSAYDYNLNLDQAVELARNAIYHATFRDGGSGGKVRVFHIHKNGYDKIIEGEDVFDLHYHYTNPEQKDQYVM
Chain of Pf20S β5 (A0A5K1K7U1 entry or part of it): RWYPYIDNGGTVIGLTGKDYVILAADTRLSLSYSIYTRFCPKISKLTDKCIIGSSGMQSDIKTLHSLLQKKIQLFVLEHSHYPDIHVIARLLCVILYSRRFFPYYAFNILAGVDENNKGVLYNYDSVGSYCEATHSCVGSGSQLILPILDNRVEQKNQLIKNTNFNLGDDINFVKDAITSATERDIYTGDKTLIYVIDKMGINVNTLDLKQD
Protocol: (§2) Figure S 3. Kinetic analysis of MPI -4 against Pf20S and human constitutive 20S proteasome.
(§3) The association rate K on, half -life t 1/2 and equilibrium constant Ki for MPI -4 against human constitutive 20S (A, B) and Pf20S (C, D). 20S β2 (A, C) and β5 (B, D) activities were determined using fluorogenic substrates, Ac -RQR-AMC (human) or Ac -WLR-AMC ( P. falciparum ) and Ac - […]

[6] = biological target: T1, human constitutive 20S proteasome β5c (Homo sapiens, UniProt P20618+P28074); assay: Kinetic analysis, human constitutive 20S β5 (Ac-WLA-AMC); assay type: biochemical; settings: Figure S3B
T1 construct: Residue positions are calculated at the start of the processed protein, and the first residue (Thr 1)
Protocol: as §2, §3

[7] = biological target: human constitutive 20S proteasome β2c (Homo sapiens, UniProt P49720+Q99436); assay: Kinetic analysis, human constitutive 20S β2 (Ac-RQR-AMC); assay type: biochemical; settings: Figure S3A
Protocol: as §2, §3

[8] = biological target: Pf20S β2 (Plasmodium falciparum, UniProt Q8I261+Q8I6T3); assay: Kinetic analysis, Pf20S β2 (Ac-WLR-AMC); assay type: biochemical, P. falciparum; settings: Figure S3C
Chain of Pf20S β2 (Q8I6T3 entry or part of it): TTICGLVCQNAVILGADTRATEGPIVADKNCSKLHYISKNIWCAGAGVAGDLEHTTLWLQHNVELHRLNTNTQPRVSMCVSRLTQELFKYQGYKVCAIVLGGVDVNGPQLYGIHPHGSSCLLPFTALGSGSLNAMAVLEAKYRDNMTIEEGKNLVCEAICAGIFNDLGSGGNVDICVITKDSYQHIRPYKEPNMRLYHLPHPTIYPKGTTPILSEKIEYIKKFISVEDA
Chain of Pf20S β2 (Q8I261 entry or part of it): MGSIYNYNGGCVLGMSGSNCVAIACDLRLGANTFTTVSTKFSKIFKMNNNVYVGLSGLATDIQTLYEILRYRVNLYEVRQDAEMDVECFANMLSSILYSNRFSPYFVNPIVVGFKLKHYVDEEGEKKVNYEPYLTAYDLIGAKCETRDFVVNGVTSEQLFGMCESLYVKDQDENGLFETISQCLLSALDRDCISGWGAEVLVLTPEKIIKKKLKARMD
Protocol: as §2, §3

| SMILES | interaction with DHA [1] | inhibition of GFP-DD degradation in the absence of Shield-1 [2] | interaction with DHA (earlier work) [3] | LD50 (72 h), 3D7 B2a [4] | koff ([5]; read-out: Koff, Pf 20S β5) | kon ([5]; read-out: association rate Kon, Pf 20S β5) | Ki ([5]; equilibrium constant, read-out: Ki, P. falciparum β5) | koff ([6]; read-out: Koff, h20S β5) | kon ([6]; read-out: association rate Kon, h20S β5) | Ki ([6]; equilibrium constant) | koff ([7]; read-out: Koff, h20S β2) | kon ([7]; read-out: association rate Kon, h20S β2) | Ki ([7]; equilibrium constant) | koff ([8]; read-out: Koff, Pf 20S β2) | kon ([8]; read-out: association rate Kon, Pf 20S β2) | Ki ([8]; equilibrium constant, read-out: Ki, P. falciparum β2) |
| --- | --- | --- | --- | --- | --- | --- | --- | --- | --- | --- | --- | --- | --- | --- | --- | --- |
| CC(=O)N1CCC[C@@H]1C(=O)N[C@@H](C)C(=O)N[C@@H](Cc1ccccc1)B(O)O [MPI-1] | pronounced synergistic interaction | a higher concentration of MPI-1 was needed to produce the same level of inhibition | – | – | – | – | – | – | – | – | – | – | – | – | – | – |
| CC(C)C[C@H](NC(=O)[C@H](Cc1ccccc1)NC(=O)c1cnccn1)B(O)O [bortezomib, reference compound] | – | prevented GFP-DD degradation | strong synergism | 1.1 ± 0.1 µM | – | – | – | – | – | – | – | – | – | – | – | – |
| CC(C)C[C@H](NC(=O)[C@H](Cc1ccccc1)NC(=O)Cc1ccc(O)cc1)B(O)O [MPI-4] | pronounced synergistic interaction | – | – | – | 0.000181 s⁻¹ | 41800 M⁻¹ s⁻¹ | ~5 nM | 0.000109 s⁻¹ | 848000 M⁻¹ s⁻¹ | 0.1 nM | 0.00485 s⁻¹ | 9960 M⁻¹ s⁻¹ | 487 nM and 490 nM | 0.000173 s⁻¹ | 27200 M⁻¹ s⁻¹ | ~5 nM |
